Patent publication US8669272B2, “2,5-disubstituted piperidine orexin receptor antagonists” (Merck Sharp & Dohme Corp., priority 2008, dated 2014)

Key:
orexin-2 receptor (OX2R) = molecular target: T1, orexin-2 receptor (OX2R) (Homo sapiens, UniProt O43614); assay: radioligand binding assay, membranes from CHO cells expressing OX2; settings: CHO cell membranes
T1 construct: expressed in transfected cells; host or cells: CHO cells (membranes)
T1 sequence (O43614 1-444): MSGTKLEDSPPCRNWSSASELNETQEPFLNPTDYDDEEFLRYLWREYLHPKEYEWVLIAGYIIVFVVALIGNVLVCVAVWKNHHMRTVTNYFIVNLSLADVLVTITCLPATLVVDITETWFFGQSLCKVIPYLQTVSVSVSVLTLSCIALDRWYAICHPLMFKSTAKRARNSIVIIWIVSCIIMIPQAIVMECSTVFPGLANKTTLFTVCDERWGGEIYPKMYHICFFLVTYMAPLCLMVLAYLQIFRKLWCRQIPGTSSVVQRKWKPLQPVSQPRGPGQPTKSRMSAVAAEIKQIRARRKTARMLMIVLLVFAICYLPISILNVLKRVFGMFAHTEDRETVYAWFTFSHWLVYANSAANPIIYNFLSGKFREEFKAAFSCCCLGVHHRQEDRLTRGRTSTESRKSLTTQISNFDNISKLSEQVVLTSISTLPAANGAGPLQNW
Method: (§1) The utility of the compounds in accordance with the present invention as orexin receptor OX1R and/or OX2R antagonists may be readily determined without undue experimentation by methodology well known in the art, including the “FLIPR Ca^2+ Flux Assay” (Okumura et al., Biochem. Biophys. Res. Comm. 280:976-981, 2001). In a typical experiment the OX1 and OX2 receptor antagonistic activity of the compounds of the present invention was determined in accordance with the following experimental method. For intracellular calcium measurements, Chinese hamster ovary (CHO) cells expressing the rat OX1 receptor or the human OX2 receptor, are grown in Iscove's modified DMEM containing 2 mM L-glutamine, […], 1% hypoxanthine-thymidine supplement, 100 U/ml penicillin, 100 ug/ml streptomycin and 10% heat-inactivated fetal calf serum (FCS). The cells are seeded at 20,000 cells/well into Becton-Dickinson black 384-well clear bottom sterile plates coated with poly-D-lysine. All reagents were from GIBCO-Invitrogen Corp. The seeded plates are incubated overnight at 37° C. and 5% CO2. Ala-6,12 human orexin-A as the agonist is prepared as a 1 mM stock solution in 1% bovine serum albumin (BSA) and diluted in assay buffer (HBSS containing 20 mM HEPES, 0.1% BSA and 2.5 mM probenecid, pH7.4) for use in the assay at a final concentration of 70 pM. Test compounds are prepared as 10 mM stock solution in DMSO, then diluted in 384-well plates, first in DMSO, then assay buffer. On the day of the assay, cells are washed 3 times with 100 ul assay buffer and then incubated for 60 min (37° C., 5% CO2) in 60 ul assay buffer containing 1 uM Fluo-4AM ester, 0.02% pluronic acid, and 1% BSA. The dye loading solution is then aspirated and cells are washed 3 times with 100 ul assay buffer. 30 ul of that same buffer is left in each well. Within the Fluorescent Imaging Plate Reader (FLIPR, Molecular Devices), test compounds are added to the plate in a volume of 25 ul, incubated for 5 min and finally 25 ul of agonist is added. Fluorescence is measured for each well at 1 second intervals for 5 minutes and the height of each fluorescence peak is compared to the height of the fluorescence peak induced by 70 pM Ala-6,12 orexin-A with buffer in place of antagonist. […] Alternatively, compound potency can be assessed by a radioligand binding assay (described in Bergman et. al. Bioorg. Med. Chem. Lett. 2008, 18, 1425-1430) in which the inhibition constant (Ki) is determined in membranes prepared from CHO cells expressing either the orexin-1 (OX1) or orexin-2 (OX2) receptor. The intrinsic orexin receptor antagonist activity of a compound which may be used in the present invention may be determined by these assays.

orexin-1 receptor (OX1R) = molecular target: T2, orexin-1 receptor (OX1R) (Homo sapiens, UniProt O43613); assay: radioligand binding assay, membranes from CHO cells expressing OX1; settings: CHO cell membranes
T2 construct: expressed in transfected cells; host or cells: CHO cells (membranes)
T2 sequence (O43613 1-425): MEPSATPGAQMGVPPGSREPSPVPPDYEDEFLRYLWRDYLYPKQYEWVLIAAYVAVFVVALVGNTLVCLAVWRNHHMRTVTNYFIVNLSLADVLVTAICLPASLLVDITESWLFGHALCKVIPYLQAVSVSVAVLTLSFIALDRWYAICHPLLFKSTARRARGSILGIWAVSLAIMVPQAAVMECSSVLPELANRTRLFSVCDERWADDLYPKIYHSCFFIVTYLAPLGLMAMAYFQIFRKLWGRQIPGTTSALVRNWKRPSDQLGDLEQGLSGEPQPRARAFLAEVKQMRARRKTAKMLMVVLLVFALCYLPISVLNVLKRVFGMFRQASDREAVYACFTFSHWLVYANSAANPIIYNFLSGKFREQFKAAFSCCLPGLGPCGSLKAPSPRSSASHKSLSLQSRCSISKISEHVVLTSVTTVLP
Method: as §1

| Ki (orexin-2 receptor (OX2R)) [nM] | Ki (orexin-1 receptor (OX1R)) [nM] | Compound |
| --- | --- | --- |
| 4.6 | 4.5 | Cc1ccc(-n2nccn2)c(C(=O)N2C[C@H](Cc3nc4ccccc4n3C)CC[C@H]2C)c1 [C-2, 1-methyl-2-({(3S,6R)-6-methyl-1-[5-methyl-2-(2H-1,2,3-triazol-2-yl)benzoyl]piperidin-3-yl}methyl)-1H-benzimidazole] |
| 6.9 | 95 | Cc1ccc(-n2nccn2)c(C(=O)N2C[C@H](CC(=O)N3CCCc4ccccc43)CC[C@H]2C)c1 [C-6, 1-({(3S,6R)-6-methyl-1-[5-methyl-2-(2H-1,2,3-triazol-2-yl)benzoyl]piperidin-3-yl}acetyl)-1,2,3,4-tetrahydroquinoline] |
| 0.36 | 0.86 | Cc1ccc(-n2nccn2)c(C(=O)N2C[C@H](COc3cccc(F)c3)CC[C@H]2C)c1 [A-9, (2R,5R)-5-[(3-fluorophenoxy)methyl]-2-methyl-1-[5-methyl-2-(2H-1,2,3-triazol-2-yl)benzoyl]piperidine] |
| 0.2 | 2.7 | Cc1ccc(-n2nccn2)c(C(=O)N2C[C@H](COc3nccc4ccccc34)CC[C@H]2C)c1 [A-15, 1-({(3R,6R)-6-methyl-1-[5-methyl-2-(2H-1,2,3-triazol-2-yl)benzoyl]piperidine-3-yl}methoxy)isoquinoline] |
